Results reported in patent US11807625B2, “Capsid inhibitors for the prevention of HIV” (Gilead Sciences, Inc., priority 2019, dated 2023).
Where two headings read alike, the source gives them in different places.

Test: PK of compound of Formula (Ia) after single subcutaneous dose of solution formulations in Wistar Han rats
Assay type: in vivo
Conditions: male, Wistar Han, rat, plasma, mean ± SD, SC 50 mg/kg; for AUC(0-t) / Cmax: sc, 50 mg/kg
Experimental: Formulations containing the compound of Formula (Ia), or a pharmaceutically acceptable salt thereof, were prepared as solutions and optionally administered subcutaneously or intramuscularly to rats, rabbits, and/or dogs.
(§1) A solution of about 400 mg/mL of the compound of Formula (Ia) having 19.14 w/w % water, 40.66 w/w % PEG 300, 35.20 w/w % of a sodium salt of a compound of Formula (Ia), and 5.00% ethanol was prepared. The solution was administered subcutaneously to male Wistar Han rats at a dose level of about 50 mg/kg and dose volume of 0.125 mL/kg and the pharmacokinetic (PK) profile was determined.
as §1, with “500” for “400”, “16.64” for “19.14”, “35.36” for “40.66”, “43.00” for “35.20”, “0.1” for “0.125”
(§2) A solution of about 400 mg/mL of the compound of Formula (Ia) having 17.00 w/w % water, 36.40 w/w % PEG 300, 35.20 w/w % of a sodium salt of a compound of Formula (Ia), 5.00 w/w % ethanol, and 6.40 w/w % poloxamer 188 was prepared. The solution was administered subcutaneously to male beagle dogs at a dose level of about 12 mg/kg and male Wistar Han rats at a dose level of about 50 mg/kg. The pharmacokinetic profiles were determined, and the results for dogs are summarized in Table and Table, while the results for rats are summarized in Table and Table below.
as §2, with “500” for “400”, “14.06” for “17.00”, “30.12” for “36.40”
A solution of about 300 mg/mL of the compound of Formula (Ia) having 23.33 w/w % water, 48.99 w/w % PEG 300, 26.47 w/w % of a sodium salt of a compound of Formula (Ia), and 1.21 w/w % poloxamer 188 was prepared. The solution was administered subcutaneously to male beagle dogs at a dose level of about 6 mg/kg and male Wistar Han rats at a dose level of about 50 mg/kg. The pharmacokinetic profiles were determined, and the results for dogs are summarized in Table and Table, while the results for rats are summarized in Table and Table below.
as §2, with “18.80” for “17.00”, “40.25” for “36.40”, “34.38” for “35.20”, “1.57” for “6.40”
as §2, with “500” for “400”, “16.29” for “17.00”, “34.88” for “36.40”, “41.92” for “35.20”, “1.91” for “6.40”
A solution of about 400 mg/mL of the compound of Formula (Ia) having 20.90 w/w % water, 44.72 w/w % PEG 300, and 34.38 w/w % of a sodium salt of a compound of Formula (Ia) was prepared. […]

[1] = n = 5 rats, solution T, 400 mg/mL

## CC(C)(C#Cc1ccc(-c2ccc(Cl)c3c(NS(C)(=O)=O)nn(CC(F)(F)F)c23)c([C@H](Cc2cc(F)cc(F)c2)NC(=O)Cn2nc(C(F)(F)F)c3c2C(F)(F)[C@@H]2C[C@H]32)n1)S(C)(=O)=O [compound of Formula (Ia)]
N = 3 rats, solution R, 400 mg/mL, read-out: AUC0-1344h
  AUC(0-t): 402 ± 58 µM·h
N = 3 rats, solution R, 400 mg/mL, read-out: AUC0-1680h
  AUC(0-t): 504 ± 80 µM·h
N = 3 rats, solution R, 400 mg/mL, read-out: AUC0-2352h
  AUC(0-t): 649 ± 95 µM·h
N = 3 rats, solution R, 400 mg/mL, read-out: AUC0-3024h
  AUC(0-t): 752 ± 92 µM·h
N = 3 rats, solution R, 400 mg/mL, read-out: AUC0-3696h
  AUC(0-t): 825 ± 80 µM·h
N = 3 rats, solution R, 400 mg/mL, read-out: AUC0-4704h
  AUC(0-t): 915 ± 44 µM·h
N = 3 rats, solution R, 400 mg/mL, read-out: AUC0-5376h
  AUC(0-t): 958 ± 21 µM·h
N = 3 rats, solution R, 400 mg/mL, read-out: AUC0-6048h
  AUC(0-t): 988 ± 4 µM·h
N = 3 rats, solution R, 400 mg/mL, read-out: AUC0-7392h
  AUC(0-t): 1020 ± 18 µM·h
N = 3 rats, solution R, 400 mg/mL, read-out: AUC0-8064h
  AUC(0-t): 1030 ± 25 µM·h
N = 3 rats, solution S, 500 mg/mL
  Cmax: 328 ± 131 nM
N = 3 rats, solution S, 500 mg/mL, read-out: AUC0-24 h
  AUC(0-t): 2.47 ± 0.39 µM·h
N = 3 rats, solution S, 500 mg/mL, read-out: AUC0-168 h
  AUC(0-t): 19.7 ± 3.1 µM·h
N = 3 rats, solution S, 500 mg/mL, read-out: AUC0-336 h
  AUC(0-t): 44.2 ± 7.5 µM·h
N = 3 rats, solution S, 500 mg/mL, read-out: AUC0-672 h
  AUC(0-t): 133 ± 40 µM·h
N = 3 rats, solution S, 500 mg/mL, read-out: AUC0-1008 h
  AUC(0-t): 233 ± 79 µM·h
N = 3 rats, solution S, 500 mg/mL, read-out: AUC0-1344 h
  AUC(0-t): 334 ± 120 µM·h
N = 3 rats, solution S, 500 mg/mL, read-out: AUC0-1680 h
  AUC(0-t): 426 ± 148 µM·h
N = 3 rats, solution S, 500 mg/mL, read-out: AUC0-2352 h
  AUC(0-t): 554 ± 185 µM·h
N = 3 rats, solution S, 500 mg/mL, read-out: AUC0-3024 h
  AUC(0-t): 652 ± 203 µM·h
N = 3 rats, solution S, 500 mg/mL, read-out: AUC0-3696 h
  AUC(0-t): 722 ± 216 µM·h
N = 3 rats, solution S, 500 mg/mL, read-out: AUC0-4704 h
  AUC(0-t): 817 ± 224 µM·h
N = 3 rats, solution S, 500 mg/mL, read-out: AUC0-5376 h
  AUC(0-t): 861 ± 226 µM·h
N = 3 rats, solution S, 500 mg/mL, read-out: AUC0-6048 h
  AUC(0-t): 896 ± 220 µM·h
N = 3 rats, solution S, 500 mg/mL, read-out: AUC0-6720 h
  AUC(0-t): 923 ± 229 µM·h
N = 3 rats, solution S, 500 mg/mL, read-out: AUC0-7392 h
  AUC(0-t): 945 ± 229 µM·h
N = 3 rats, solution S, 500 mg/mL, read-out: AUC0-8064 h
  AUC(0-t): 964 ± 228 µM·h
N = 3 rats, solution V, 300 mg/mL, read-out: AUC0-24 h
  AUC(0-t): 3.66 ± 4.29 µM·h
N = 3 rats, solution V, 300 mg/mL, read-out: AUC0-168 h
  AUC(0-t): 24.5 ± 5.4 µM·h
N = 3 rats, solution V, 300 mg/mL, read-out: AUC0-336 h
  AUC(0-t): 50.1 ± 9.2 µM·h
N = 3 rats, solution V, 300 mg/mL, read-out: AUC0-672 h
  AUC(0-t): 137 ± 27 µM·h
N = 3 rats, solution V, 300 mg/mL, read-out: AUC0-1008 h
  AUC(0-t): 237 ± 52 µM·h
N = 3 rats, solution V, 300 mg/mL, read-out: AUC0-1344 h
  AUC(0-t): 331 ± 85 µM·h
N = 3 rats, solution V, 300 mg/mL, read-out: AUC0-1680 h
  AUC(0-t): 423 ± 96 µM·h
N = 3 rats, solution V, 300 mg/mL, read-out: AUC0-2352 h
  AUC(0-t): 554 ± 113 µM·h
N = 3 rats, solution V, 300 mg/mL, read-out: AUC0-3024 h
  AUC(0-t): 646 ± 121 µM·h
N = 3 rats, solution V, 300 mg/mL, read-out: AUC0-3696 h
  AUC(0-t): 700 ± 121 µM·h
N = 3 rats, solution V, 300 mg/mL, read-out: AUC0-4704 h
  AUC(0-t): 720 ± 120 µM·h
[1]
  Cmax: 450 ± 155 nM
  Tmax: 18.8 ± 17.5 days
N = 5 rats, solution T, 400 mg/mL, read-out: AUC0-24 h
  AUC(0-t): 5.49 ± 1.6 µM·h
N = 5 rats, solution T, 400 mg/mL, read-out: AUC0-168 h
  AUC(0-t): 40.6 ± 15.3 µM·h
N = 5 rats, solution T, 400 mg/mL, read-out: AUC0-336 h
  AUC(0-t): 76.4 ± 25.3 µM·h
N = 5 rats, solution T, 400 mg/mL, read-out: AUC0-672 h
  AUC(0-t): 173 ± 75.6 µM·h
N = 5 rats, solution T, 400 mg/mL, read-out: AUC0-1008 h
  AUC(0-t): 313 ± 157 µM·h
N = 5 rats, solution T, 400 mg/mL, read-out: AUC0-1344 h
  AUC(0-t): 394 ± 185 µM·h
N = 5 rats, solution T, 400 mg/mL, read-out: AUC0-1680 h
  AUC(0-t): 485 ± 195 µM·h
N = 5 rats, solution T, 400 mg/mL, read-out: AUC0-2352 h
  AUC(0-t): 581 ± 146 µM·h
N = 5 rats, solution T, 400 mg/mL, read-out: AUC0-3024 h
  AUC(0-t): 655 ± 112 µM·h
N = 5 rats, solution T, 400 mg/mL, read-out: AUC0-3696 h
  AUC(0-t): 679 ± 103 µM·h
N = 5 rats, solution T, 400 mg/mL, read-out: AUC0-4704 h
  AUC(0-t): 718 ± 88 µM·h
N = 5 rats, solution T, 400 mg/mL, read-out: AUC0-5376 h
  AUC(0-t): 745 ± 76 µM·h
N = 5 rats, solution T, 400 mg/mL, read-out: AUC0-6048 h
  AUC(0-t): 766 ± 66 µM·h
N = 5 rats, solution T, 400 mg/mL, read-out: AUC0-6720 h
  AUC(0-t): 783 ± 59 µM·h
N = 5 rats, solution U, 500 mg/mL
  Cmax: 362 ± 147 nM
N = 5 rats, solution U, 500 mg/mL, read-out: AUC0-24 h
  AUC(0-t): 3.74 ± 0.78 µM·h
N = 5 rats, solution U, 500 mg/mL, read-out: AUC0-168 h
  AUC(0-t): 29.8 ± 7.5 µM·h
N = 5 rats, solution U, 500 mg/mL, read-out: AUC0-336 h
  AUC(0-t): 63.2 ± 20.7 µM·h
N = 5 rats, solution U, 500 mg/mL, read-out: AUC0-672 h
  AUC(0-t): 159 ± 77 µM·h
N = 5 rats, solution U, 500 mg/mL, read-out: AUC0-1008 h
  AUC(0-t): 338 ± 141 µM·h
N = 5 rats, solution U, 500 mg/mL, read-out: AUC0-1344 h
  AUC(0-t): 409 ± 159 µM·h
N = 5 rats, solution U, 500 mg/mL, read-out: AUC0-1680 h
  AUC(0-t): 529 ± 194 µM·h
N = 5 rats, solution U, 500 mg/mL, read-out: AUC0-2352 h
  AUC(0-t): 610 ± 215 µM·h
N = 5 rats, solution U, 500 mg/mL, read-out: AUC0-3024 h
  AUC(0-t): 669 ± 233 µM·h
N = 5 rats, solution U, 500 mg/mL, read-out: AUC0-3696 h
  AUC(0-t): 692 ± 233 µM·h
N = 5 rats, solution U, 500 mg/mL, read-out: AUC0-4704 h
  AUC(0-t): 728 ± 249 µM·h
N = 5 rats, solution U, 500 mg/mL, read-out: AUC0-5376 h
  AUC(0-t): 756 ± 256 µM·h
N = 5 rats, solution U, 500 mg/mL, read-out: AUC0-6048 h
  AUC(0-t): 781 ± 261 µM·h
N = 5 rats, solution U, 500 mg/mL, read-out: AUC0-6720 h
  AUC(0-t): 802 ± 266 µM·h
N = 3 rats, solution R, 400 mg/mL, read-out: AUC0-6720n
  AUC: 1007 ± 8 µM·h
